Assay results reported in patent publication US4450269A, “Mono-5-substituted-3-chloro-4H-1,2,6-thiadiazin-4-one antifungal agents” (FMC Corporation, priority 1980, dated 1984).

Legend:
[1] = test system: Botrytis cinerea; assay: Spore germination test; type: cell-based; settings: BC, 48 hours
Procedure, shortened: (§1)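 Compound was delivered in acetone into water agar at final 40, 10, 2.5 and 1 ppm. Alternaria solani and Botrytis cinerea spores were applied as sterile-water suspensions, while Erysiphe polygoni and Uromyces phaseoli spores were brushed on from infected leaves. After 48 h at 24° C., percentage germination was converted to a rating.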

[2] = test system: Uromyces phaseoli; assay: Spore germination test; type: cell-based; settings: UP, 48 hours
Procedure, shortened: as §1

[3] = test system: Alternaria solani; assay: Spore germination test; type: cell-based; settings: AS, 48 hours
Procedure, shortened: as §1

[4] = test system: Uromyces phaseoli; assay: whole plant or invertebrate; settings: foliar, read-out: Percent Disease Control, foliar, bean rust

Compound	Spore Germination Rating ([1]; 1.0 ppm)	Spore Germination Rating ([1]; 2.5 ppm)	Spore Germination Rating ([1]; 10 ppm)	Spore Germination Rating ([1]; 40 ppm)	Spore Germination Rating ([2]; 1.0 ppm)	Spore Germination Rating ([2]; 2.5 ppm)	Spore Germination Rating ([2]; 10 ppm)	Spore Germination Rating ([2]; 40 ppm)	Spore Germination Rating ([3]; 1.0 ppm)	Spore Germination Rating ([3]; 2.5 ppm)	Spore Germination Rating ([3]; 10 ppm)	Spore Germination Rating ([3]; 40 ppm)	pest or weed control at 150 ppm [4]
CSc1ccc(Oc2nsnc(Cl)c2=O)cc1 [Compound 39, 3-chloro-5-[(4-methylthio)phenoxy]-4H-1,2,6,-thiadiazin-4-one]	4 (80-100)	4 (80-100)	4 (80-100)	3 (60-80)	2 (40-60)	2 (40-60)	2 (40-60)	0 (0-10)	4 (80-100)	3 (60-80)	2 (40-60)	0 (0-10)	98%
O=C(O)c1ccc(Oc2nsnc(Cl)c2=O)cc1 [Compound 50, 3-(4-carboxyphenoxy)-5-chloro-4H--1,2,6-thiadiazin-4-one]	4 (80-100)	4 (80-100)	4 (80-100)	4 (80-100)	4 (80-100)	4 (80-100)	2 (40-60)	0 (0-10)	4 (80-100)	4 (80-100)	4 (80-100)	4 (80-100)	90%
CNC(=O)Nc1ccc(Oc2nsnc(Cl)c2=O)cc1 [Compound 28, 3-chloro-5-[4-(3-methylureido)-phenoxy]-4H--1,2,6-thiadiazin-4-one]	4 (80-100)	1 (10-40)	0 (0-10)	0 (0-10)	4 (80-100)	2 (40-60)	2 (40-60)	2 (40-60)	4 (80-100)	4 (80-100)	4 (80-100)	4 (80-100)	0%
CC(=O)Nc1cccc(Oc2nsnc(Cl)c2=O)c1 [Compound 42, 3-[(3-N--acetylamino)-phenoxy]-5-chloro-4H--1,2,6-thiadiazin-4-one]	4 (80-100)	4 (80-100)	4 (80-100)	1 (10-40)	4 (80-100)	3 (60-80)	1 (10-40)	0 (0-10)	4 (80-100)	4 (80-100)	4 (80-100)	2 (40-60)	100%
O=c1c(Cl)nsnc1Oc1c(Cl)cccc1Cl [Compound 18, 3-chloro-5-(2,6-dichlorophenoxy)-4H--1,2,6-thiadiazin-4-one]	4 (80-100)	1 (10-40)	0 (0-10)	0 (0-10)	0 (0-10)	0 (0-10)	0 (0-10)	0 (0-10)	3 (60-80)	2 (40-60)	1 (10-40)	0 (0-10)	100%
Cc1cc(Cl)c(Oc2nsnc(Cl)c2=O)cc1C [Compound 58, 3-chloro-5-[(2-chloro-4,5-dimethyl)phenoxy]-4H--1,2,6-thiadiazin-4-one]	3 (60-80)	0 (0-10)	0 (0-10)	0 (0-10)	2 (40-60)	0 (0-10)	0 (0-10)	0 (0-10)	4 (80-100)	3 (60-80)	0 (0-10)	0 (0-10)	100%
O=c1c(Cl)nsnc1Oc1cccc(Cl)c1Cl [Compound 19, 3-chloro-5-(2,3-dichlorophenoxy)-4H--1,2,6-thiadiazin-4-one]	4 (80-100)	1 (10-40)	0 (0-10)	0 (0-10)	0 (0-10)	0 (0-10)	0 (0-10)	0 (0-10)	3 (60-80)	3 (60-80)	0 (0-10)	0 (0-10)	0%
O=c1c(Cl)nsnc1Oc1ccc(Cl)cc1 [Compound 12, 3-chloro-5-(4-chlorophenoxy)-4H--1,2,6-thiadiazin-4-one]	0 (0-10)	2 (40-60)	0 (0-10)	0 (0-10)	1 (10-40)	1 (10-40)	0 (0-10)	0 (0-10)	3 (60-80)	1 (10-40)	1 (10-40)	0 (0-10)	100%
O=c1c(Cl)nsnc1Oc1ccc(O)cc1 [Compound 35, 3-chloro-5-(4-hydroxyphenoxy)-4H-1,2,6-thiadiazin-4-one]	4 (80-100)	4 (80-100)	4 (80-100)	3 (60-80)	0 (0-10)	0 (0-10)	0 (0-10)	0 (0-10)	4 (80-100)	4 (80-100)	3 (60-80)	0 (0-10)	100%
O=C(O)Cc1ccccc1Oc1nsnc(Cl)c1=O [Compound 45, 3-(2-carboxymethylphenoxy)-5-chloro-4H--1,2,6-thiadiazin-4-one]	4 (80-100)	4 (80-100)	4 (80-100)	2 (40-60)	4 (80-100)	4 (80-100)	4 (80-100)	2 (40-60)	4 (80-100)	4 (80-100)	4 (80-100)	2 (40-60)	95%
CCCCOc1ccc(Oc2nsnc(Cl)c2=O)cc1 [Compound 6, 3-chloro-5-(4-n-butoxyphenoxy)-4H--1,2,6-thiadiazin-4-one]	4 (80-100)	4 (80-100)	4 (80-100)	4 (80-100)	1 (10-40)	0 (0-10)	0 (0-10)	0 (0-10)	4 (80-100)	4 (80-100)	4 (80-100)	4 (80-100)	0%
N#Cc1ccc(Oc2nsnc(Cl)c2=O)cc1 [Compound 10, 3-chloro-5-(4-cyanophenoxy)-4H--1,2,6-thiadiazin-4-one]	2 (40-60)	0 (0-10)	0 (0-10)	0 (0-10)	0 (0-10)	0 (0-10)	0 (0-10)	0 (0-10)	1 (10-40)	1 (10-40)	1 (10-40)	1 (10-40)	100%
